Experimental data: the supplement of paper PMC10307832

Key:
Assay in all cases: relative viability (nuclei count vs DMSO), 5 days (fraction); higher = more cells survive
[1] = system: LXF-289
Outline: (§1)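 For relative viability, nuclei counts in treated wells were divided by those in vehicle wells. Lung cancer cell lines had been pin-tool dosed in 1536-well plates the day after seeding and cultured for 5 days, then fixed and stained in one step (final 0.05% Triton X-100, 1% formaldehyde, 1 ug/ml Hoechst) and imaged at 4×. Doses were one drug alone or a fixed anchor-drug dose plus five library-drug doses (not always all listed) in √10 steps, and values are duplicate-plate medians.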

[2] = system: NCI-H2170
Outline: as §1

[3] = system: COR-L 105
Outline: as §1

[4] = system: HCC-78
Outline: as §1

[5] = system: UMC-11
Outline: as §1

[6] = system: NCI-H1944
Outline: as §1

[7] = system: NCI-H2085
Outline: as §1

[8] = system: SK-LU-1
Outline: as §1

[9] = system: EPLC-272H
Outline: as §1

[10] = system: NCI-H1793
Outline: as §1

[11] = system: HCC-366
Outline: as §1

[12] = system: HOP-62
Outline: as §1

[13] = system: NCI-H358
Outline: as §1

[14] = system: NCI-H1666
Outline: as §1

[15] = system: LU99A
Outline: as §1

[16] = system: NCI-H1915
Outline: as §1

[17] = system: LC-2-ad
Outline: as §1

[18] = system: NCI-H1792
Outline: as §1

[19] = system: NCI-H2009
Outline: as §1

[20] = system: NCI-H460
Outline: as §1

[21] = system: SW 900
Outline: as §1

[22] = system: A-427
Outline: as §1

Cc1sc2c(c1C)C(c1ccc(Cl)cc1)=N[C@@H](CC(=O)OC(C)(C)C)c1nnc(C)n1-2 [JQ1] + COc1cccc2cc(-c3nc([C@H]4CC[C@H](C(=O)O)CC4)n4ncnc(N)c34)[nH]c12 [OSI-027] (partner 0.5 µM)
relative viability ([1]; first compound 0.04 µM): 0.803 | relative viability ([1]; first compound 0.1265 µM): 0.695 | relative viability ([1]; first compound 0.4 µM): 0.614 | relative viability ([1]; first compound 1.265 µM): 0.297 | relative viability ([1]; first compound 4 µM): 0.173 | relative viability ([2]; first compound 0.04 µM): 0.683 | relative viability ([2]; first compound 0.1265 µM): 0.623 | relative viability ([2]; first compound 0.4 µM): 0.688 | relative viability ([2]; first compound 1.265 µM): 0.422 | relative viability ([2]; first compound 4 µM): 0.362 | relative viability ([3]; first compound 0.04 µM): 0.608 | relative viability ([3]; first compound 0.1265 µM): 0.336 | relative viability ([3]; first compound 0.4 µM): 0.297 | relative viability ([3]; first compound 1.265 µM): 0.207 | relative viability ([3]; first compound 4 µM): 0.248 | relative viability ([4]; first compound 0.04 µM): 0.389 | relative viability ([4]; first compound 0.1265 µM): 0.47 | relative viability ([4]; first compound 0.4 µM): 0.387 | relative viability ([4]; first compound 1.265 µM): 0.335 | relative viability ([4]; first compound 4 µM): 0.296 | relative viability ([5]; first compound 0.04 µM): 0.396 | relative viability ([5]; first compound 0.1265 µM): 0.399 | relative viability ([5]; first compound 0.4 µM): 0.258 | relative viability ([5]; first compound 1.265 µM): 0.192 | relative viability ([5]; first compound 4 µM): 0.182 | relative viability ([6]; first compound 0.04 µM): 0.39 | relative viability ([6]; first compound 0.1265 µM): 0.364 | relative viability ([6]; first compound 0.4 µM): 0.375 | relative viability ([6]; first compound 1.265 µM): 0.227 | relative viability ([6]; first compound 4 µM): 0.25 | relative viability ([7]; first compound 0.04 µM): 0.763 | relative viability ([7]; first compound 0.1265 µM): 0.519 | relative viability ([7]; first compound 0.4 µM): 0.574 | relative viability ([7]; first compound 1.265 µM): 0.368 | relative viability ([7]; first compound 4 µM): 0.323 | relative viability ([8]; first compound 0.04 µM): 0.381 | relative viability ([8]; first compound 0.1265 µM): 0.333 | relative viability ([8]; first compound 0.4 µM): 0.253 | relative viability ([8]; first compound 1.265 µM): 0.158 | relative viability ([8]; first compound 4 µM): 0.143 | relative viability ([9]; first compound 0.04 µM): 0.26 | relative viability ([9]; first compound 0.1265 µM): 0.336 | relative viability ([9]; first compound 0.4 µM): 0.275 | relative viability ([9]; first compound 1.265 µM): 0.237 | relative viability ([9]; first compound 4 µM): 0.248 | relative viability ([10]; first compound 0.04 µM): 0.237 | relative viability ([10]; first compound 0.1265 µM): 0.343 | relative viability ([10]; first compound 0.4 µM): 0.38 | relative viability ([10]; first compound 1.265 µM): 0.241 | relative viability ([10]; first compound 4 µM): 0.286 | relative viability ([11]; first compound 0.04 µM): 0.958 | relative viability ([11]; first compound 0.4 µM): 0.783 | relative viability ([11]; first compound 1.265 µM): 0.336 | relative viability ([11]; first compound 4 µM): 0.31 | relative viability ([12]; first compound 0.04 µM): 0.826 | relative viability ([12]; first compound 0.1265 µM): 0.613 | relative viability ([12]; first compound 0.4 µM): 0.45 | relative viability ([12]; first compound 1.265 µM): 0.189 | relative viability ([12]; first compound 4 µM): 0.149 | relative viability ([13]; first compound 0.04 µM): 0.705 | relative viability ([13]; first compound 0.1265 µM): 0.796 | relative viability ([13]; first compound 0.4 µM): 0.748 | relative viability ([13]; first compound 1.265 µM): 0.47 | relative viability ([13]; first compound 4 µM): 0.461 | relative viability ([14]; first compound 0.04 µM): 0.761 | relative viability ([14]; first compound 0.1265 µM): 0.901 | relative viability ([14]; first compound 0.4 µM): 0.726 | relative viability ([14]; first compound 1.265 µM): 0.581 | relative viability ([14]; first compound 4 µM): 0.789 | relative viability ([15]; first compound 0.04 µM): 0.299 | relative viability ([15]; first compound 0.1265 µM): 0.268 | relative viability ([15]; first compound 0.4 µM): 0.316 | relative viability ([15]; first compound 1.265 µM): 0.234 | relative viability ([15]; first compound 4 µM): 0.209 | relative viability ([16]; first compound 0.04 µM): 0.609 | relative viability ([16]; first compound 0.1265 µM): 0.602 | relative viability ([16]; first compound 0.4 µM): 0.59 | relative viability ([16]; first compound 1.265 µM): 0.263 | relative viability ([16]; first compound 4 µM): 0.217 | relative viability ([17]; first compound 0.04 µM): 0.77 | relative viability ([17]; first compound 0.1265 µM): 0.543 | relative viability ([17]; first compound 0.4 µM): 0.62 | relative viability ([17]; first compound 1.265 µM): 0.366 | relative viability ([17]; first compound 4 µM): 0.302 | relative viability ([18]; first compound 0.04 µM): 0.666 | relative viability ([18]; first compound 0.4 µM): 0.82 | relative viability ([18]; first compound 1.265 µM): 0.497 | relative viability ([18]; first compound 4 µM): 0.57 | relative viability ([19]; first compound 0.04 µM): 0.558 | relative viability ([19]; first compound 0.1265 µM): 0.471 | relative viability ([19]; first compound 0.4 µM): 0.318 | relative viability ([19]; first compound 1.265 µM): 0.185 | relative viability ([19]; first compound 4 µM): 0.179 | relative viability ([20]; first compound 0.04 µM): 0.594 | relative viability ([20]; first compound 0.1265 µM): 0.366 | relative viability ([20]; first compound 0.4 µM): 0.259 | relative viability ([20]; first compound 1.265 µM): 0.0873 | relative viability ([20]; first compound 4 µM): 0.0909 | relative viability ([21]; first compound 0.04 µM): 0.572 | relative viability ([21]; first compound 0.1265 µM): 0.627 | relative viability ([21]; first compound 0.4 µM): 0.352 | relative viability ([21]; first compound 1.265 µM): 0.165 | relative viability ([21]; first compound 4 µM): 0.166 | relative viability ([22]; first compound 0.04 µM): 0.468 | relative viability ([22]; first compound 0.1265 µM): 0.45 | relative viability ([22]; first compound 0.4 µM): 0.458 | relative viability ([22]; first compound 1.265 µM): 0.3 | relative viability ([22]; first compound 4 µM): 0.293
